Broadly, the IC50 is the midpoint of a concentration-inhibition curve. One may read the inhibition as the share of the control response that was lost under treatment. The term EC50 denotes the concentration that produces a half-maximal response. For orientation: stoichiometry N means the number of molecules, sites or subunits per partner or assembly.

These results are taken from article PMC4222603, “Dual inhibition of HIV-1 replication by integrase-LEDGF allosteric inhibitors is predominant at the post-integration stage” (Retrovirology, 2013).

Assay [1] addresses T1, IN strand transfer activity (full-length HIV-1 IN) (Human immunodeficiency virus type 1 group M subtype B, UniProt P12497).
T1 construct: were carried out at 37°C with the full-length HIV-1 IN
The experiment in a line: IN strand transfer radioactive assay. It counts as biochemical. The source says:
(§1) Sequences of the different oligonucleotides (ODN) substrates are U5B: 5′-[…]-3′, U5A: 5′- […]-3′ and U5B-2: 5′-[…]-3′. ODNs were purchased from Eurogentec and further purified by electrophoresis in a denaturing 16% acrylamide/urea gel. For activity assays, ODNs (U5B and U5B-2) were radiolabelled with T4 polynucleotide kinase (New England Biolabs) and γ[^32-P]ATP (3000 Ci/mmol) (Amersham), and purified on a Sephadex G-10 column (GE Healthcare). Double-stranded ODNs (U5B with U5A and U5B-2 with U5A used for 3′-processing and strand transfer reactions, respectively) were obtained by mixing equimolar amounts of complementary strands in the presence of 100 mM NaCl.
(§2) IN activity assays – 3′-processing, strand transfer – were carried out at 37°C with the full-length HIV-1 IN, in a buffer containing 10 mM HEPES (pH 7.2), 1 mM DTT, 7.5 mM MgCl2 in the presence of 6.25 nM DNA (3′-processing) or 12.5 nM DNA (strand transfer) as described previously. For negative control, 100 mM Na2EDTA was added to the reaction before incubation. Products were separated by electrophoresis in denaturing 16% acrylamide/urea gels. Gels were analysed with a Molecular Dynamics STORM phosphoimager and quantified with ImageQuant™ 4.1 software.

Assay [2] deals with T2, IN 3′ processing activity (Human immunodeficiency virus type 1 group M subtype B, UniProt P12497).
T2 construct: were carried out at 37°C with the full-length HIV-1 IN
The experiment in a line: IN 3′ processing radioactive assay. It counts as biochemical, HIV-1. Particulars: at 100 nM.
From the text: as §1, §2

Assay [3] relates to NL4-3 IN T174I mutant virus. The class given is cell-based, HIV-1.
Assay [4] relates to HIV-1 NL4-3 wt. It counts as cell-based.
In assay [5] the test system is VSV-G-pseudotyped NL4-3Δenv-luc. The experiment in a line: microbe, parasite or virus in culture. It counts as cell-based, HIV-1.
In assay [6] the test system is HIV-1 NL4-3. As to the kind of experiment: Antiviral assay in MT-4 cells, multiple-round infection, CellTiter-Glo. It counts as cell-based. Particulars: Human immunodeficiency virus 1, NL43; MT4 cells; mean of six independent experiments; read-out: NL4-3 EC50 Multiple-round. Here is the method:
MT-4 cells growing exponentially at the density of 10^6/mL were infected with HIV-1 strain NL4-3 at a MOI (multiplicity of infection) of 0.001 for 2 h. The cells were washed with PBS and aliquoted, using 100 μL fresh complete RPMI, into 96-well white plates (Corning) in the presence of different concentrations of compounds.
For orientation: Cellular ATP, detected with luciferase, serves as a proxy for viable cell number.

Assay [7] has as its system HIV-1 LAV virions produced by HeLa-LAV cells. As to the kind of experiment: Virions produced by compound-treated HeLa-LAV cells: p24 and infectivity. It counts as cell-based. Particulars: luciferase assay in TZM cells.
The target of assay [8] is His6-IN (HIV-1 NL4-3 integrase wild type, from pINSD.His) (HIV-1 NL4-3). The experiment in a line: SEC; Superdex 200 10/300 GL, 0.4 mL/min, 50 mM HEPES pH 7.5, 1 M NaCl, 7 mM CHAPS, 5 mM MgCl2, 10 mM DTT, 10% glycerol, room temperature; His6-IN wt 21 uM or His6-IN A128T 40 uM; no compound. In general terms: Size exclusion chromatography separates by hydrodynamic size, large species first.

Assay [9] shares this target. As to the kind of experiment: SEC; Superdex 200 10/300 GL, 0.4 mL/min, 50 mM HEPES pH 7.5, 1 M NaCl, 7 mM CHAPS, 5 mM MgCl2, 10 mM DTT, 10% glycerol, room temperature; His6-IN wt 21 uM or His6-IN A128T 40 uM incubated for 10 min with 100 uM BI-D or Mut101 before injection.
The target of assay [10] is His6-IN A128T (HIV-1 NL4-3 integrase mutant A128T) (HIV-1 NL4-3). The experiment in a line: SEC; Superdex 200 10/300 GL, 0.4 mL/min, 50 mM HEPES pH 7.5, 1 M NaCl, 7 mM CHAPS, 5 mM MgCl2, 10 mM DTT, 10% glycerol, room temperature; His6-IN wt 21 uM or His6-IN A128T 40 uM; no compound.
The target is the same in assay [11]. The experiment in a line: SEC; Superdex 200 10/300 GL, 0.4 mL/min, 50 mM HEPES pH 7.5, 1 M NaCl, 7 mM CHAPS, 5 mM MgCl2, 10 mM DTT, 10% glycerol, room temperature; His6-IN wt 21 uM or His6-IN A128T 40 uM incubated for 10 min with 100 uM BI-D or Mut101 before injection.

`C[C@@H]1CCO[C@H]2Cn3cc(C(=O)NCc4ccc(F)cc4F)c(=O)c(O)c3C(=O)N12` [DTG, Dolutegravir, reference compound]: the IC50 in [1] amounted to 2.7 nM. Further, the inhibition at 0.1 µM in assay [2] was determined as 16%.
For the molecule `CC(C)(C)NC(=O)[C@@H]1C[C@@H]2CCCC[C@@H]2CN1C[C@@H](O)[C@H](Cc1ccccc1)NC(=O)[C@H](CC(N)=O)NC(=O)c1ccc2ccccc2n1` [SQV, Saquinavir, reference compound], in assay [3], the “Infectivity of NL4-3 IN T174I virus produced in presence of compound” value was “sensitive to and inactivated”. Besides, in assay [4], the “Infectivity of NL4-3 wt virus produced in presence of compound” value was “sensitive to and inactivated”. For the same molecule, the “NL4-3 EC50 Single-round” value in assay [5] is reported as “Inactive”. Moreover, in assay [6], the EC50 was determined as 13 nM. Besides, in [7], the “Infectivity of virions from treated HeLa-LAV cells” value was “strong virus infectivity defects”.
On to “His6-IN (HIV-1 NL4-3 integrase wild type, from pINSD.His) (enzyme)”, for which the stoichiometry N was found to be 2 in assay [8] and 4 in assay [9].
For the molecule “His6-IN A128T (HIV-1 NL4-3 integrase mutant A128T) (enzyme)”, the stoichiometry N amounted to 2 in assay [10] and 4 in assay [11].
